Data on twelve molecules can be found in PubChem BioAssay (NCI).

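Following 48 hours of exposure in 96-well plates, responses at five concentrations were used to interpolate endpoints linearly. TGI is the concentration that stops growth completely.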

Among the test systems are MOLT-4 leukemia; MDA-N; SF-295 CNS; SK-MEL-28 melanoma; MDA-MB-231 breast; RPMI-8226 leukemia; K-562 leukemia; LOX IMVI melanoma; SK-MEL-5 melanoma; EKVX NSCLC; HS 578T breast; SN12C renal; SR leukemia.
Holding throughout (experiment): NCI anticancer screen, dose series, 48 h

As to `CC(C)(C)n1c(=O)n2n(c1=O)C1c3cccc4cccc(c34)C2C2c3cccc4cccc(c34)C1n1c(=O)n(C(C)(C)C)c(=O)n12`, the TGI in the assay with MOLT-4 leukemia, with MDA-N, in the assay on SF-295 CNS, with SK-MEL-28 melanoma, in the assay on MDA-MB-231 breast and in the assay on RPMI-8226 leukemia was > 100 µM in each case. In addition, the TGI in the assay on K-562 leukemia, with LOX IMVI melanoma, in the assay with SK-MEL-5 melanoma, in the assay on EKVX NSCLC, in the assay on HS 578T breast and in the assay with SN12C renal was > 100 µM throughout.
Take `O=C(O)C12CCC(CC1=O)C2` (centres undefined): the TGI in the assay on MOLT-4 leukemia, with SR leukemia, in the assay on SF-295 CNS, with SK-MEL-28 melanoma, with RPMI-8226 leukemia and in the assay with K-562 leukemia was > 100 µM in each case. For the same molecule, the TGI with LOX IMVI melanoma, in the assay on SK-MEL-5 melanoma, with EKVX NSCLC, in the assay on HS 578T breast and in the assay with SN12C renal was > 100 µM in each case.
On to `COC(=O)Cn1c(=O)oc2nc(-c3ccccc3)cc(C(F)(F)F)c21`, for which the TGI is 71.3 µM in the assay on MOLT-4 leukemia; > 100 µM in the assay on SR leukemia; > 100 µM in the assay with MDA-N; > 100 µM with SF-295 CNS; > 100 µM in the assay with SK-MEL-28 melanoma; > 100 µM with MDA-MB-231 breast. For the same molecule, the TGI is 95.8 µM with RPMI-8226 leukemia, 61.9 µM in the assay on SK-MEL-5 melanoma, > 100 µM in the assay with EKVX NSCLC and > 100 µM in the assay with SN12C renal.
Take `Nc1cc(Cl)ccc1SSc1ccc(Cl)cc1N`: the TGI in the assay on MOLT-4 leukemia is > 100 µM; in the assay with SR leukemia, > 100 µM; with SF-295 CNS it was 25.6 µM; with SK-MEL-28 melanoma it was 40.6 µM; with MDA-MB-231 breast, 20.3 µM; in the assay with RPMI-8226 leukemia it was > 100 µM. The TGI in the assay on K-562 leukemia is > 100 µM; in the assay with LOX IMVI melanoma it was 14.2 µM; in the assay with SK-MEL-5 melanoma, 27 µM; in the assay on EKVX NSCLC, 24.5 µM; in the assay with HS 578T breast it was 46.7 µM; in the assay with SN12C renal, 28.7 µM.
For the molecule `COc1ccccc1NC(=O)CC(=O)N1N=C(c2ccccc2)C(N=Nc2ccc(Cl)cc2)C1=O` (centres undefined), the TGI in the assay with MOLT-4 leukemia was > 100 µM; with SR leukemia it was > 100 µM; with SF-295 CNS it was 70.3 µM; in the assay with SK-MEL-28 melanoma, > 100 µM; with RPMI-8226 leukemia it was > 100 µM; with K-562 leukemia, > 100 µM. The TGI in the assay with LOX IMVI melanoma is > 100 µM; in the assay on SK-MEL-5 melanoma, 42 µM; with EKVX NSCLC it was > 100 µM; in the assay on SN12C renal, > 100 µM.
In the case of `C=CCCCC1(C)CCNC1=S` (centres undefined), the TGI with MOLT-4 leukemia, in the assay with MDA-N, in the assay with SF-295 CNS, with SK-MEL-28 melanoma, in the assay on MDA-MB-231 breast and in the assay on RPMI-8226 leukemia was > 100 µM in each case. Further, the TGI with K-562 leukemia, in the assay on SK-MEL-5 melanoma, in the assay with EKVX NSCLC, with HS 578T breast and with SN12C renal was > 100 µM throughout.
Turning to `Cc1cc(S(=O)(=O)NC(=NCCc2ccccc2)NN)c(S)cc1Cl`, the TGI in the assay on MOLT-4 leukemia is 63.9 µM; with SR leukemia, > 100 µM; with SK-MEL-28 melanoma, 71.3 µM; with MDA-MB-231 breast it was > 100 µM; with RPMI-8226 leukemia, > 100 µM; in the assay with K-562 leukemia, > 100 µM. The TGI in the assay with LOX IMVI melanoma was > 100 µM; with SK-MEL-5 melanoma, 37.9 µM; in the assay with EKVX NSCLC it was > 100 µM; in the assay with HS 578T breast, 59.1 µM; in the assay on SN12C renal, > 100 µM.
For the molecule `C/C=C\C(CC(=O)OC)CC(=O)N(CCC1CN(S(=O)(=O)C(F)(F)F)c2ccccc21)Cc1ccc(OC)cc1OC` (centres undefined), the TGI with MOLT-4 leukemia, in the assay with MDA-N, in the assay on SF-295 CNS, in the assay with SK-MEL-28 melanoma, in the assay on MDA-MB-231 breast and with RPMI-8226 leukemia was > 100 µM throughout. Also, the TGI with K-562 leukemia, with LOX IMVI melanoma, in the assay with SK-MEL-5 melanoma, in the assay with EKVX NSCLC and with SN12C renal was > 100 µM each time.
As to `NC(=O)CCC(NC(=O)c1c2ccccc2nc2ccccc12)C(=O)O` (centres undefined), the TGI with MOLT-4 leukemia, in the assay with MDA-N, with SF-295 CNS, with SK-MEL-28 melanoma, in the assay with MDA-MB-231 breast and with RPMI-8226 leukemia was > 100 µM in each case. The TGI in the assay on K-562 leukemia, with LOX IMVI melanoma, in the assay on SK-MEL-5 melanoma, in the assay with EKVX NSCLC and in the assay on SN12C renal was > 100 µM in each case.
Take `CC(C)(C)[Si](C)(C)OCC1OC(n2ccc(=O)[nH]c2=O)C(O[Si](C)(C)C(C)(C)C)[C@]12O[C@@H]2CO` (some centres undefined): the TGI is 46.3 µM with MOLT-4 leukemia; > 100 µM with SR leukemia; 59 µM with MDA-N; 23.7 µM with SF-295 CNS; 34.6 µM in the assay with SK-MEL-28 melanoma; 39.6 µM in the assay on MDA-MB-231 breast. The TGI in the assay with RPMI-8226 leukemia was > 100 µM; in the assay with K-562 leukemia, > 100 µM; in the assay with LOX IMVI melanoma it was 40.9 µM; with SK-MEL-5 melanoma, 34.7 µM; in the assay on EKVX NSCLC, 36.6 µM; with SN12C renal it was 36.3 µM.
Take `Cc1cc2c(cc1Cl)SC(NNC1=NCCN1)=NS2(=O)=O`: the TGI in the assay with MOLT-4 leukemia, with MDA-N, with SF-295 CNS, in the assay with SK-MEL-28 melanoma, in the assay on MDA-MB-231 breast and in the assay on RPMI-8226 leukemia was > 10 µM in each case. The TGI with K-562 leukemia, in the assay on LOX IMVI melanoma, with SK-MEL-5 melanoma, with EKVX NSCLC, in the assay on HS 578T breast and in the assay with SN12C renal was > 10 µM throughout.
With `Cc1cc(C)nc(NS(=O)(=O)c2ccc(NC(=O)NC(F)(F)F)cc2)n1`, the TGI with MOLT-4 leukemia, with SR leukemia, in the assay with MDA-N, in the assay on SK-MEL-28 melanoma, in the assay on RPMI-8226 leukemia and in the assay with K-562 leukemia was > 100 µM throughout. The TGI in the assay with LOX IMVI melanoma, with SK-MEL-5 melanoma, with EKVX NSCLC, with HS 578T breast and in the assay with SN12C renal was > 100 µM throughout.
